Among the data in US20030207813A1, “Retroviral protease inhibitor combinations” (priority 1995, published 2003) are EC50 and EC90 values, retold here.

Values after ≈ are worked out from the molar mass of the structure shown. Where two headings read alike, the source gives them in different places.

As a reminder, the EC90 is the point of the concentration-response curve where the effect stands at 90%.

The subject of one experiment is HIV-1RF. As to the kind of experiment: CEM-T4 cell infection assay, reverse transcriptase readout, isolate RF. Format: cell-based. Particulars: Human immunodeficiency virus 1, CEM-T4, 168 h, Table 6, CEM-T4 cells, 7 days, read-out: Virus Isolate (EC50 ng/mL) RF. The text has this:
(§1) RF represents the HIV-1 strain HIV-LRF and RFR represents a mixture of resistant strains obtained by selection of RF against the compound of Example 1. RFR comprises a mixture of viral strains having protease genotypes of G48V (14/40 clones); G48V, V82A (18/40 clones); G48V, L90S (2/40 clones); G48V, 154T, V82A (1/40 clones); G48M (1/40 clones); G48V, Q61H (1/40 clones); V13I, G48V (1/40 clones); G48V, F53L, V82A (1/40 clones); and G48V, V82A, C95Y (1/40 clones). RFR2 represents a mixture of resistant strains obtained by cloning RFR by three rounds of growth at limiting dilution. RFR2 comprises a mixture of viral strains having protease genotypes of G48V, V82A (13/15 clones); G17E, G48V, V82A (1/15 clones); and G48V, V82A, N37D, N88D (1/15 clones). RFRR represents a mixture of resistant strains obtained by selection of RF against the compounds of Examples 1 and 2 and then cloning by three rounds of growth at limiting dilution. RFRR comprises a mixture of viral strains having protease genotypes of G48V, 154T, L63P, V82A (7/9 clones); G48V, 154T, L63P, V82A, N88S (1/9 clones); and G48V, 154T, L63P, G73M, V82A (1/9 clones). SF162 represents the HIV-1 strain SF-162 and SF162R represents a mixture of resistant strains obtained by selection of SF162 against the compound of Example 1. SF162R comprises a mixture of viral strains having protease genotypes of M461, F53L, L63P, A71V, N88D (2/3 clones); and M46I, F53L, L63P, A71V, N88D, Q92R (1/3 clones). 89-959 represents the HIV-1 strain 89-959 and 89-959R represents a mixture of resistant strains obtained by selection of 89-959 against the compound of Example 2. 89-959R comprises a mixture of viral strains having protease genotypes of N88S (4/5 clones); and D25N, T26A, D30N, D37N, R41K, G73D, R87K, N88S (1/4 clones). NL4 represents the HIV-1 strain HIV-1NL4-3. NL4(G48V) represents a strain having a synthetically generated site-directed mutation in the protease from glycine to valine at amino acid position number 48. NL4(I84V) represents a strain having a synthetically generated site-directed mutation in the protease from isoleucine to valine at amino acid position number 84. NL4(R8Q,M46I) represents a strain having synthetically generated site-directed mutations in the protease from arginine to glutamine at amino acid position number 8 and methionine to isoleucine at amino acid position number 46. NL4(P22-538) represents a mixture of resistant strains obtained by selection of HIV-1NL4-3 against the compound of Example 10 after 22 passages comprising protease genotypes M46I, L63P, A71V, V82F, I84V (4/10); M46I, L63P, V82F, I84V (3/10); and M46I, A71V, V82F, I84V (3/10). NL4(P37-538) represents resistant strains obtained by selection of HIV-1NL4-3 against the compound of Example 10 after 37 passages comprising protease genotype M46I, L63P, A71V, 184A. NL4(538/524) represents resistant strains obtained by selection of NL4(P22-538) against the compound of Example 5 after 24 passages comprising protease genotype M46I, L63P, A71V, 184A. NL4(538/P7-AG) represents a mixture of resistant strains obtained by selection of NL4(P22-538) against the compound of Example 12 after 7 passages comprising protease genotypes M46I, L63P, A71V, 184A; and V321, V82I. NL4(538/P24-AG) represents resistant strains obtained by selection of NL4(P22-538) against the compound of Example 12 after 24 passages comprising protease genotype M46I, L63P, A71V, 184A. NLA(P19-003) represents resistant strains obtained by selection of HIV-1^NL4-3 against the compound of Example 9 after 19 passages comprising protease genotype R8K, M46I. NL4(P34-003) represents resistant strains obtained by selection of HIV-1^NL4-3 against the compound of Example 9 after 34 passages comprising protease genotype R8K, M46I, L63P, A71V, L90M.
(§2) The viral isolate resistance results summarized in Tables 4-6 were generated according to the following assay procedure or minor modifications thereof. Assays are performed in 96-well tissue culture plates. […]

The subject of experiment [1] is RFR2 (RFR cloned by three rounds of limiting dilution). As to the kind of experiment: CEM-T4 cell infection assay, reverse transcriptase readout, resistant isolate RFR2. Conditions: Human immunodeficiency virus 1, 168 h, Table 6, CEM-T4 cells, 7 days, read-out: Virus Isolate (EC50 ng/mL) RFR2. Format: cell-based, HIV-1.
Source text: as §1, §2

The test system of experiment [2] is RFRR (resistant strains selected from RF against Examples 1 and 2). As to the kind of experiment: CEM-T4 cell infection assay, reverse transcriptase readout, resistant isolate RFRR. It is filed as cell-based, HIV-1. Particulars: Human immunodeficiency virus 1, 168 h, Table 6, CEM-T4 cells, 7 days, read-out: Virus Isolate (EC50 ng/mL) RFRR.
Source text: as §1, §2

In the next experiment the test system is HIV-1NL4-3. The experiment can be described thus: microbe, parasite or virus in culture. Format: cell-based. Conditions: Human immunodeficiency virus 1, NL4; for EC90: Table 7, read-out: Virus Isolate (EC90 nM) NL4; for EC50: read-out: Virus Isolate (EC50 nM) NL4. The source says: (§3) RF represents the HIV-1 strain HIV-LRF and RFR represents a mixture of resistant strains obtained by selection of RF against the compound of Example 1. […] RFR2 represents a mixture of resistant strains obtained by cloning RFR by three rounds of growth at limiting dilution. […] RFRR represents a mixture of resistant strains obtained by selection of RF against the compounds of Examples 1 and 2 and then cloning by three rounds of growth at limiting dilution. […] SF162 represents the HIV-1 strain SF-162 and SF162R represents a mixture of resistant strains obtained by selection of SF162 against the compound of Example 1. […] 89-959 represents the HIV-1 strain 89-959 and 89-959R represents a mixture of resistant strains obtained by selection of 89-959 against the compound of Example 2. […] NL4 represents the HIV-1 strain HIV-1NL4-3. NL4(G48V) represents a strain having a synthetically generated site-directed mutation in the protease from glycine to valine at amino acid position number 48. NL4(I84V) represents a strain having a synthetically generated site-directed mutation in the protease from isoleucine to valine at amino acid position number 84. NL4(R8Q,M46I) represents a strain having synthetically generated site-directed mutations in the protease from arginine to glutamine at amino acid position number 8 and methionine to isoleucine at amino acid position number 46.

A further experiment relates to NL4(I84V). The experiment can be described thus: Viral isolate resistance assay per Markowitz et al., NL4(I84V). It is filed as cell-based, HIV-1. Particulars: Human immunodeficiency virus 1, Table 7.
Source text: as §3

The test system of another experiment is NL4(P37-538). As to the kind of experiment: Viral isolate resistance assay per Markowitz et al., NL4(P37-538). It is filed as cell-based, HIV-1.
Source text: as §1
The viral isolate resistance results summarized in Tables 7-11 were generated according to the assay procedures described by Markowitz et al., Journal of Virology, vol. […]

The test system of the next experiment is NL4(P22-538). As to the kind of experiment: Viral isolate resistance assay per Markowitz et al., NL4(P22-538). Format: cell-based, HIV-1. Particulars: Human immunodeficiency virus 1, read-out: Virus Isolate (EC50 nM) NL4(P22-538).
Source text: as §1, with “NLA(P19-003) represents resistant strains obtained by selection of HIV-1^NL4-3 against the compound of Example 9 after 19 passages comprising protease genotype R8K, M46I. NL4(P34-003) represents resistant strains obtained by selection of HIV-1^NL4-3 against the compound of Example 9 after 34 passages comprising protease genotype R8K, M46I, L63P, A71V, L90M.” left out

The next experiment concerns NL4(538/524). The experiment can be described thus: Viral isolate resistance assay per Markowitz et al., NL4(538/524). It is filed as cell-based, HIV-1. Conditions: Human immunodeficiency virus 1; Table 10; NL4(P22-538) selected against Example 5, 24 passages.
Source text: as §1, with “NLA(P19-003) represents resistant strains obtained by selection of HIV-1^NL4-3 against the compound of Example 9 after 19 passages comprising protease genotype R8K, M46I. NL4(P34-003) represents resistant strains obtained by selection of HIV-1^NL4-3 against the compound of Example 9 after 34 passages comprising protease genotype R8K, M46I, L63P, A71V, L90M.” left out

The test system of another experiment is NL4(538/P7-AG). The experiment can be described thus: Viral isolate resistance assay per Markowitz et al., NL4(538/P7-AG). Format: cell-based, HIV-1. Conditions: Human immunodeficiency virus 1; Table 10; NL4(P22-538) selected against Example 12, 7 passages.
Source text: as §1, with “NLA(P19-003) represents resistant strains obtained by selection of HIV-1^NL4-3 against the compound of Example 9 after 19 passages comprising protease genotype R8K, M46I. NL4(P34-003) represents resistant strains obtained by selection of HIV-1^NL4-3 against the compound of Example 9 after 34 passages comprising protease genotype R8K, M46I, L63P, A71V, L90M.” left out

A further experiment concerns NL4(538/P24-AG). As to the kind of experiment: Viral isolate resistance assay per Markowitz et al., NL4(538/P24-AG). Particulars: Human immunodeficiency virus 1; Table 10; NL4(P22-538) selected against Example 12, 24 passages. It is filed as cell-based, HIV-1.
Source text: as §1, with “NLA(P19-003) represents resistant strains obtained by selection of HIV-1^NL4-3 against the compound of Example 9 after 19 passages comprising protease genotype R8K, M46I. NL4(P34-003) represents resistant strains obtained by selection of HIV-1^NL4-3 against the compound of Example 9 after 34 passages comprising protease genotype R8K, M46I, L63P, A71V, L90M.” left out

The mark [3] stands for this setting: Human immunodeficiency virus 1, read-out: Virus Isolate (EC50 nM) NL4(P37-538).

On to `CC(C)CN(C[C@@H](O)[C@H](Cc1ccccc1)NC(=O)[C@@H](NC(=O)CN1CCCC1)C(C)(C)C)S(=O)(=O)c1ccc2c(c1)OCO2` [Example 14, N-[2R-hydroxy-3-[[(1,3-benzodioxol-5-yl)sulfonyl](2-methylpropyl)amino]-1S-(phenylmethyl)propyl]-2S-[[(pyrrolidin-1-yl)acetyl]amino]-3,3-dimethylbutanamide], for which the EC50 in the experiment with HIV-1RF was determined as 1 ng/mL (≈ 1.55 nM); in experiment [1] it was 6 ng/mL (≈ 9.3 nM); in experiment [2], 39 ng/mL (≈ 60.5 nM); in the experiment with HIV-1NL4-3 (Table 9), 60 nM; in the experiment on NL4(P37-538) (setting [3]), 1000 nM. Moreover, the EC90 in the experiment with HIV-1NL4-3 came out at 8 nM; with NL4(I84V) it was 72 nM.

For `CC(C)CN(C[C@@H](O)[C@H](Cc1ccccc1)NC(=O)[C@H](C)CS(C)(=O)=O)S(=O)(=O)c1ccc2c(c1)OCO2` [Example 15, N-[2R-hydroxy-3-[(2-methylpropyl)[(1,3-benzodioxol-5-yl)sulfonyl]amino]-1S-(phenylmethyl)propyl]2S-methyl-3-(methylsulfonyl)propanamide], the EC50 in the experiment with HIV-1RF turned out to be 5 ng/mL (≈ 8.79 nM); in experiment [1] it was 9 ng/mL (≈ 15.8 nM); in [2], 21 ng/mL (≈ 36.9 nM); in the experiment with HIV-1NL4-3 (Table 9), 8 nM; in the experiment with NL4(P22-538) it was 400 nM; in the experiment with NL4(P37-538) (setting [3]), 1000 nM. For the same molecule, the EC90 in the experiment with HIV-1NL4-3 was 60 nM.

In the case of `CNCC(=O)N[C@H](C(=O)N[C@@H](Cc1ccccc1)[C@H](O)CN(CC(C)C)S(=O)(=O)c1ccc2c(c1)OCO2)C(C)(C)C` [Example 16, 2S-[[(N-methylamino)acetyl]amino]-N-[2R-hydroxy-3-[[(1,3-benzodioxol-5-yl)sulfonyl](2-methylpropyl)amino]-1S-(phenylmethyl)propyl]-3.3-dimethylbutanamide], the EC50 is 3 ng/mL (≈ 4.96 nM) in the experiment with HIV-1RF; 1 ng/mL (≈ 1.65 nM) in experiment [1]; 9 ng/mL (≈ 14.9 nM) in experiment [2]; 8 nM with HIV-1NL4-3 (Table 8); 40 nM with NL4(P37-538) (Human immunodeficiency virus 1, Table 9, selected against Example 10, 37 passages, read-out: Virus Isolate (EC50 nM) NL4(P37-538)); 40 nM in the experiment with NL4(538/524). The EC50 in the experiment on NL4(538/P7-AG) and in the experiment with NL4(538/P24-AG) was 40 nM throughout. Also, the EC90 in the experiment on HIV-1NL4-3 turned out to be 8 nM.
